In US12306194B2, “Reagent for fluorescence imaging of lipid droplets in cell and tissue” (NATIONAL UNIVERSITY CORPORATION GUNMA UNIVERSITY, priority 2019, dated 2025):

Experiments:
[1] = Measurement of fluorescence lifetime in solvents; assay type: physicochemical
Experimental: The fluorescence lifetime (τf) of each compound in each solvent was measured using a compact fluorescence lifetime measurement apparatus (Quntaurus-Tau, manufactured by Hamamatsu Photonics K.K.).

[2] = system: lipid droplets in HeLa cells; experiment: Fluorescence imaging of lipid droplets in oleic acid-treated HeLa cells; assay type: cell-based
Text: Since LipiDye requires use of an excitation wavelength of about 405 nm, there is a concern about phototoxicity to cells in cases of long observation.

[3] = system: 3T3-L1 cells (adipocytes); experiment: Intracellular photostability under excitation light in 3T3-L1 cells; assay type: cell-based
Experimental: (§1) Using a fluorescence microscope (IX71, manufactured by Olympus Corporation), fluorescence imaging images of cells were acquired over time, and the photostability (It/I0) and the retention property were measured.
The photostability and the retention property are important factors in long-term measurement for, for example, tracing the processes of formation, fusion, and degradation of lipid droplets. Each fluorescent reagent was added to 3T3-L1 cells (adipocytes) to a final concentration of 100 nM, and the cells were cultured for 30 minutes. After washing the cells, the cells were irradiated with an excitation light required for imaging (450 to 500 nm; for LipiDye, an excitation wavelength of 400 to 440 nm), to evaluate the photostability. By regarding the time immediately after the irradiation as Second 0, imaging images were acquired at 20-second intervals for analysis of the image intensity.

[4] = system: 3T3-L1 cells (adipocytes); experiment: Intracellular retention property in 3T3-L1 cells; assay type: cell-based
Experimental: as §1
For evaluation of the intracellular retention property of each reagent, each fluorescent reagent was added to 3T3-L1 cells (adipocytes) to a final concentration of 100 nM (for Lipi-Green, 500 nM), and imaging images were acquired after 30 minutes of culture and 24 hours after washing away of the reagent.

[5] = Solubility / precipitation in water (physiological saline); assay type: physicochemical
[6] = system: lipid droplets in the liver; experiment: Fluorescence intensity and lifetime imaging of liver lipid droplets in normal and fatty-liver model mice; assay type: in vivo, mice (C57BL/6J)
Experimental: (§2) Fluorescence imaging of lipid droplets in a body tissue, and of an adipose tissue, using PC6S is described below. […] Therefore, PC6S cannot be administered to mice. In view of this, 5 mM stock solution was added (at 10% in terms of the volume ratio) to physiological saline supplemented with 10% bovine serum albumin. […] Regarding administration of MNs-NB, a stock solution in DMSO is directly administered to mice. Since administration of DMSO may cause death of mice from shock, the administration method in the present invention is thought to be a safer method. Here, 100 to 200 μL of 500 μM solution (50 to 100 nmol) was administered to the tail vein of a mouse under anesthesia, and a fluorescence imaging experiment was carried out using a confocal laser microscope (excitation wavelength, 488 nm; monitoring wavelength, 510 to 560 nm). In the present experiment, a microscope capable of acquiring fluorescence lifetime images as well as fluorescence intensity images (FLIM: fluorescence lifetime imaging microscope) (Simple-Tau-150-DX; Becker & Hickl) was used. The animal experiment was carried out in accordance with the animal experiment safety regulations in Gunma University.
Fatty-liver model mice are known to have a liver containing a larger amount of lipid droplets accumulated therein compared to normal mice. Here, fatty-liver model mice were prepared by feeding mice (C57BL/6J) with an ultra-high-fat, choline-deficient, methionine-reduced diet for 2 weeks or 10 weeks. […] Furthermore, in the mouse fed with the fatty diet for 10 weeks, intense fluorescence was found from structures having shapes different from those of lipid droplets, in addition to the fluorescence from lipid droplets. This is thought to be autofluorescence due to infiltration of macrophage-derived cells caused by liver fibrosis.

[7] = system: adipose tissue and lipid droplets; experiment: Fluorescence imaging of adipose tissues and lipid droplets in a mouse; assay type: in vivo, mouse (BALB/cAJcl); details: 50 nmol
Experimental: as §2
In an individual, various adipose tissues and lipid droplets are present. Their imaging was carried out using PC6S. […]

[8] = system: fixed HeLa cells; experiment: Fluorescence imaging of fixed HeLa cells; assay type: cell-based; details: 100 nM, 30 minutes, HeLa fixed in 4% paraformaldehyde-phosphate buffer
Experimental: The fluorescence imaging reagent of the present invention is applicable to, and allows the detection in, unfixed biological samples and living bodies. The reagent is, however, also useful for fixed samples. HeLa cells cultured in the presence of 400 μM oleic acid for 48 hours were fixed in 4% paraformaldehyde-phosphate buffer for 20 minutes, and PC6S was added thereto to a final concentration of 100 nM, followed by performing culture for 30 minutes, washing the cultured cells, and then acquiring a fluorescence imaging image using an inverted fluorescence microscope in the same manner as in Example 2.

[9] = system: lipid droplets in HeLa cells; experiment: Multicolor imaging and time-course imaging of lipid droplet formation in HeLa cells; assay type: cell-based
Experimental: Further, HeLa cells were cultured for 30 minutes in a medium to which PC6S was added to a final concentration of 100 nM, and PC6S unincorporated in the cells was removed, followed by acquiring a fluorescence imaging image (Hour 0) using an inverted fluorescence microscope in the same manner as in Example 2. The cells were cultured in the presence of 400 μM oleic acid for 24 hours, and their fluorescence imaging images were acquired 4, 8, 12, and 24 hours later.

[10] = system: HeLa cells; experiment: Cytotoxicity with cell growth-cytotoxicity measurement kit CCK-8; assay type: cell-based; details: 0.1, 0.5, 1, 10, 20, 40 or 50 μM, 24 hours
Experimental: Further, HeLa cells were plated on a 96-well plate, and allowed to adhere to a glass surface. Thereafter, PC6S was added to the medium (to a final concentration of 0.1, 0.5, 1, 10, 20, 40, or 50 μM), and culture was performed for 24 hours. After washing, cytotoxicity was evaluated using a cell growth-cytotoxicity measurement kit CCK-8. Two hours after the addition of the reagent, the absorbance was measured.

CCN(CC)c1ccc2cc3cc(-c4nc5ccccc5s4)c(=O)oc3cc2c1 [PC6S, 3-(Benzo[d]thiazol-2-yl)-8-(diethylamino)-2H-benzo[g]chromen-2-one]
τf (fluorescence lifetime) ([1]; in Bu2O (dibutyl ether)): 2.91 ns
τf (fluorescence lifetime) ([1]; in DMSO): 3.46 ns
τf (fluorescence lifetime) ([1]; in EtOAc): 3.41 ns
τf (fluorescence lifetime) ([1]; in MeCN): 3.72 ns
τf (fluorescence lifetime) ([1]; in n-Hexane): 2.55 ns
imaging of lipid droplets / lipid droplet selectivity in HeLa cells ([2]; 100 nM reagent, 30 minutes, 400 μM oleic acid 48 hours): capable of clear imaging of lipid droplets
fluorescence intensity of HeLa cells ([2]; 100 nM reagent, 30 minutes, compared with BODIPY493/503 or Lipi Green): higher fluorescence intensities
Brightness in cells ([2]; summary grade, Table 3): ⊚
Selectivity for lipid droplets ([2]; summary grade, Table 3): ◯
photostability (fluorescence intensity ratio It/I0 against irradiation time) ([3]; 100 nM, 3T3-L1 cells, relative to the commercially available reagents): highest photostability
Photostability ([3]; summary grade, Table 3): ⊚
intracellular retention property ([4]; 100 nM (Lipi-Green 500 nM), 3T3-L1 cells, 24 hours after washing away of the reagent): high intracellular retention properties
intracellular retention property ([4]; summary grade, Table 3): ⊚
solubility in water (physiological saline) [5]: remarkably low solubility
precipitation ([5]; 5 mM stock solution added at 10% volume ratio to physiological saline supplemented with 10% bovine serum albumin): precipitation of PC6S could be suppressed
precipitation ([5]; 5 mM stock solution in DMSO added at 10% volume ratio to physiological saline): precipitation of PC6S occurs
lipid droplet imaging of liver surface ([6]; 100 nmol, tail vein, fatty-liver model mouse (Week 2)): large lipid droplets were imaged over the entire liver surface
lipid droplet imaging of liver surface ([6]; 100 nmol, tail vein, mouse fed with a normal diet): small lipid droplets could be found in hepatocytes
fluorescence lifetime imaging of liver surface ([6]; 100 nmol, tail vein, mouse fed with the fatty diet for 10 weeks): capable of distinguishing between the autofluorescence (blue) and the PC6S fluorescence (orange)
Imaging of lipid dropletts in a tissue ([6]; summary grade, Table 3): ⊚
fluorescence imaging of kidney [7]: small lipid droplets distributed in tubular cells could be imaged
fluorescence imaging of subcutaneous, abdominal, pericardial adipose tissue, skeletal muscle, cardiac muscle, kidney [7]: Fluorescence derived from PC6S was found from sites containing lipid accumulated therein
fluorescence detection in fixed cells [8]: fluorescence of PC6S could be detected also in the fixed HeLa cells
imaging of lipid droplet formation over time ([9]; 100 nM, then 400 μM oleic acid, 4, 8, 12 and 24 hours): the process of gradual formation of lipid droplets could be imaged over time
multicolor imaging ([9]; combined use with Hoechst 33342 and Mito tracker red): multicolor imaging was possible
cytotoxicity [10]: no remarkable cytotoxicity was found at any concentration
